Measured values: ChEMBL document CHEMBL1137441, “Carbonic anhydrase inhibitors: the inhibition profiles of the human mitochondrial isoforms VA and VB with anions are very different” (Bioorg Med Chem, 2007)

Key:
[1] = target: Carbonic anhydrase 5B, mitochondrial (Homo sapiens) (UniProt Q9Y2D0)
Description: Inhibition of human mitochondrial CA5B by CO2 hydration assay

[2] = target: Carbonic anhydrase 5A, mitochondrial (Homo sapiens) (UniProt P35218); assay: Inhibition of human mitochondrial CA5A by CO2 hydration assay
Carbonic anhydrase 5A, mitochondrial (Homo sapiens), sequence (P35218 whole entry): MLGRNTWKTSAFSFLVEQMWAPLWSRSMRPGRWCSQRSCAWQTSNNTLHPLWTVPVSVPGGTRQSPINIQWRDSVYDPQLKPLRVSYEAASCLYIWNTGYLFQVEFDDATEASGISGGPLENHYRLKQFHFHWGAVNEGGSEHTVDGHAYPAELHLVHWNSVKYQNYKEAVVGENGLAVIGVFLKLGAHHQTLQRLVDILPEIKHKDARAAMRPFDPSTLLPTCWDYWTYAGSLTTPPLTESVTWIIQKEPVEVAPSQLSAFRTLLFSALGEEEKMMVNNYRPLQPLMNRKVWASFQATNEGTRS

Carbonic anhydrase 5B, mitochondrial (Homo sapiens), sequence (Q9Y2D0 whole entry): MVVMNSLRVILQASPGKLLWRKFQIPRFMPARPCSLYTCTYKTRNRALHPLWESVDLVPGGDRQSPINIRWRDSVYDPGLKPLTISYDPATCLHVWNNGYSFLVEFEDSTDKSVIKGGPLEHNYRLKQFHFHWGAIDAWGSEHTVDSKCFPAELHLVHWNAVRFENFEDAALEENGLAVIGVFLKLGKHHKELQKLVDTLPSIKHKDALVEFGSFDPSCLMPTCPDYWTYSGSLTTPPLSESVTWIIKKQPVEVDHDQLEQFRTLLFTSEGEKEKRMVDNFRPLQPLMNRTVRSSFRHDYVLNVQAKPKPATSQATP

Structure (SMILES) | Kinact [1] | Kinact [2]
O=[As](O)(O)c1ccccc1 | 0.082 mM | 1.02 mM
OB(O)c1ccccc1 |  | 1.04 mM
